Data as given in publication PMC13316043, “Structural basis of NSD2 degradation via targeted recruitment of SCF-FBXO22” (Nature Communications, 2026).

Experiments:
FBXO22 FIST domain = test: Differential scanning fluorimetry (DSF); format: binding, human; details: vs DMSO
Description: A total of 9.5 µL of the master mix containing FBXO22 FIST WT or variants, SYPRO Orange Dye (Invitrogen), and DSF buffer (20 mM Tris 7.5, 150 mM NaCl, and 1 mM TCEP) were added to a 384-well qPCR plate (Genesee Scientific). 0.5 µL of the compound in DMSO was added to achieve a final concentration of 15 µM of the protein and 15× SYPRO Orange. The DSF assay plate was covered and incubated on an orbital shaker at room temperature for 30 min. The DSF assay was performed using the ViiA 7 Real-Time PCR System (Applied Biosystems). The plate was heated from 25°C to 95°C with a rate of 0.033°C/second. The raw fluorescence value was analyzed using the Protein Thermal Shift Software (Applied Biosystems, v1.4) to obtain the Tm. The graph was generated using GraphPad Prism (v 10.4.1).

[1] = molecular target: T1, NSD2 (U2OS NSD2-HiBiT cells) (Homo sapiens, UniProt O96028); test: NSD2 HiBiT degradation assay; format: cell-based; details: for NSD2 Remaining (%) / reduction of NSD2 levels: U2OS NSD2-HiBit cells, 1 µM, 6 h; for DC50: dose-response, read-out: DC50 (concentration at which 50% of NSD2 is degraded)
T1 construct: RNPs were introduced into U2OS cells by electroporation; endogenous in cells; host or cells: U2OS NSD2-HiBiT clone P112 (CRISPR knock-in)
T1 sequence (O96028 1-1365): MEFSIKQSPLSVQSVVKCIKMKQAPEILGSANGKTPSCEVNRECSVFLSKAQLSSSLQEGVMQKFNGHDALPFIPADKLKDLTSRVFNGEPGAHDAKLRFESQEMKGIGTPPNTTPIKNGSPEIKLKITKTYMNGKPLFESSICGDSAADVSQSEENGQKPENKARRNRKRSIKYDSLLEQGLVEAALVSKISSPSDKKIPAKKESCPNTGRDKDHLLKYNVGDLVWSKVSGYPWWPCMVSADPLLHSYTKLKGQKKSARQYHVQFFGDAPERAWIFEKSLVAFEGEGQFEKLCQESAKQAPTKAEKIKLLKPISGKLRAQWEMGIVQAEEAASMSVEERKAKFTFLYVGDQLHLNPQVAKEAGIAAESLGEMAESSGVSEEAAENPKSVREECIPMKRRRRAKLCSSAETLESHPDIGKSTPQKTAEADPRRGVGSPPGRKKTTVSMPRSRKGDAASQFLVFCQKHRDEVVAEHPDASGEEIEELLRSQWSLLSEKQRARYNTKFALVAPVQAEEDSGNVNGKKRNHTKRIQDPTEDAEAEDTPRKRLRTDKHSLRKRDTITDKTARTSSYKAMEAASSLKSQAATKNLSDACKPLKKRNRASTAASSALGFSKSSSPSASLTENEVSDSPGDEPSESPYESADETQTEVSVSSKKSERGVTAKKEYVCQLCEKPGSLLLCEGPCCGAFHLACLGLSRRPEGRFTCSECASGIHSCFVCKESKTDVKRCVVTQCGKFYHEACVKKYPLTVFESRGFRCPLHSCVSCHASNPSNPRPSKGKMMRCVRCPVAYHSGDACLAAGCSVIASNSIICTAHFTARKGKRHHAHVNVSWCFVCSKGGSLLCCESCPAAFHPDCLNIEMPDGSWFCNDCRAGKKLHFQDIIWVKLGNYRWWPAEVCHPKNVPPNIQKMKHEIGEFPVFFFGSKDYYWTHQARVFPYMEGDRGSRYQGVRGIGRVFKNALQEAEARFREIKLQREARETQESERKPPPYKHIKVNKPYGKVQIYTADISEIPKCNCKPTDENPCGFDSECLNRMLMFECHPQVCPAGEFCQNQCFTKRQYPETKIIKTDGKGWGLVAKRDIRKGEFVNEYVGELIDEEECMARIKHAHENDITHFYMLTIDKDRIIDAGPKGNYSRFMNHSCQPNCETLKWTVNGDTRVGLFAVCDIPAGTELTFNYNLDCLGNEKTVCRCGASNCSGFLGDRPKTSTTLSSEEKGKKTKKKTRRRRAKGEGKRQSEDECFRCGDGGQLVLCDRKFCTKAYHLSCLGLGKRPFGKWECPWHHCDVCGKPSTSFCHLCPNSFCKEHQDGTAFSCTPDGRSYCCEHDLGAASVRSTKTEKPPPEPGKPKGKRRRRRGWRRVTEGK
Excerpt: The NSD2 genomic sequence was obtained from the UCSC genome browser and used to design sgRNAs to introduce HiBiT tags at either the 5’ or 3’ ends of the gene. sgRNA were assembled into RNPs using TrueCut Cas9 Protein v2 (Invitrogen, Cat#A36497), an sgRNA crRNA:tracrRNA duplex (below; IDT) and ssODN (below; IDT). RNPs were introduced into U2OS cells by electroporation using a Neon XT electroporation system (1750 V, 10 ms, 3 pulses) in R-buffer, using Thermo Fisher Neon transfection kit (Cat# MPK1025K) and according to the manufacturer's protocol. After plating for recovery for four days, single cell clones limited dilution cloning. Single cell clones that grew out were identified as containing integrated HiBiT tags on NSD2 by performing HiBiT assays using HiBiT lytic assay (Promega: N3040) and read on a plate reader. Clones were further confirmed by PCR analysis.
To test compounds for NSD2 degradation, a compound plate was prepared by diluting compounds in DMSO into cell media in a 384-deep-well plate (Revvity). Then, 6 µL of the diluted compounds were transferred into the well of the 384-well assay plate (Corning). 24 µL of the NSD2 HiBiT U2OS P112 cells or parental U2OS cells (3000 cells/well) were added to each well to make a final volume of 30 µL with a 0.1% final DMSO concentration. For multiple time points, multiple assay plates were made and incubated in the incubator at 37 °C in 5% CO2 for 3/6/12/24/48 hrs. 10 min before the reading, the assay plate and the Nano-Glo HiBiT Lytic Detection System (Promega) were brought to room temperature. The HiBiT lytic reagent master mix was prepared according to the product instructions and added to the assay plate. The plate was then incubated on an orbital shaker for 5 min at room temperature, equilibrated for 10 min, and then read using the GloMax luminometer (Promega) for luminescence detection. Compound treatment was normalized to the DMSO control with the background subtraction using the parental U2OS cell line as the background control, plated alongside the HiBiT U2OS P112 cells. The data and graphs were then analyzed and generated using GraphPad Prism (v 10.4.1). DC50 and Dmax were calculated by fitting the data to a non-linear regression curve.

Row | Compound | change in melting temperature (Tm) of WT FBXO22 FIST (FBXO22 FIST domain) | NSD2 Remaining (%) [1] [%] | reduction of NSD2 levels [1] | fold more potent (DC50) than UNC8732 ([1]; U2OS NSD2 HiBit cells) | fold more potent (DC50) than UNC10415667 ([1]; U2OS NSD2 HiBit cells) | DC50 ([1]; U2OS NSD2 HiBit cells) [nM] | fold more potent (DC50) than UNC8732 and UNC10088 ([1]; U2OS NSD2 HiBit cells) | change in melting temperature (Tm) of FBXO22 FIST C326A (FBXO22 FIST domain; C326A variant)
1 | O=C1COc2cc(C(=O)N(Cc3ccc(C(=O)Nc4ccc5c(c4)CCN(C(=O)CCCCC(O)S(=O)(=O)O)C5)cc3)C3CC3)ccc2N1 (stereo not drawn) [UNC10088] | stabilize WT FBXO22 FIST |  |  |  |  |  |  | 
2 | Cc1cc(C=O)ccc1C(=O)N1CCc2cc(NC(=O)c3ccc(CN(C(=O)c4ccc5c(c4)OCC(=O)N5)C4CC4)cc3)ccc2C1 [UNC12149] |  | 7.4 | greater than 90% | ~ 10 fold | ~ 4 fold | 120 |  | 
3 | O=Cc1ccc(C(=O)N2CCc3cc(NC(=O)c4ccc(CN(C(=O)c5ccc6c(c5)OCC(=O)N6)C5CC5)cc4)ccc3C2)cc1 [UNC10415667] | significant increase | 20 | about 75% |  |  | 460 | about 2 fold | negligible shift
